# Measurements: patent publication US20240158392A1 (Janssen Biotech, Inc., priority 2021, published 2024)
# Target: SIK2 (Homo sapiens, UniProt Q9H0K1)
# Assay: SIK2 Enzymatic Assay High Version 2 (High ATP)
# Type: biochemical
# Details: not given
# Procedure, shortened: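 At room temperature, enzyme (6 nM, 2× final) was preincubated with compound for 30 min, then 6 mM ATP and 400 μM HDAC5tide (both 2× final) were added for 2 h. ADP formed was measured by ADP-Glo Max (2 h reagent, 1 h detection) using luminescence.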
# Sequence of SIK2 (Q9H0K1 whole entry, species assumed): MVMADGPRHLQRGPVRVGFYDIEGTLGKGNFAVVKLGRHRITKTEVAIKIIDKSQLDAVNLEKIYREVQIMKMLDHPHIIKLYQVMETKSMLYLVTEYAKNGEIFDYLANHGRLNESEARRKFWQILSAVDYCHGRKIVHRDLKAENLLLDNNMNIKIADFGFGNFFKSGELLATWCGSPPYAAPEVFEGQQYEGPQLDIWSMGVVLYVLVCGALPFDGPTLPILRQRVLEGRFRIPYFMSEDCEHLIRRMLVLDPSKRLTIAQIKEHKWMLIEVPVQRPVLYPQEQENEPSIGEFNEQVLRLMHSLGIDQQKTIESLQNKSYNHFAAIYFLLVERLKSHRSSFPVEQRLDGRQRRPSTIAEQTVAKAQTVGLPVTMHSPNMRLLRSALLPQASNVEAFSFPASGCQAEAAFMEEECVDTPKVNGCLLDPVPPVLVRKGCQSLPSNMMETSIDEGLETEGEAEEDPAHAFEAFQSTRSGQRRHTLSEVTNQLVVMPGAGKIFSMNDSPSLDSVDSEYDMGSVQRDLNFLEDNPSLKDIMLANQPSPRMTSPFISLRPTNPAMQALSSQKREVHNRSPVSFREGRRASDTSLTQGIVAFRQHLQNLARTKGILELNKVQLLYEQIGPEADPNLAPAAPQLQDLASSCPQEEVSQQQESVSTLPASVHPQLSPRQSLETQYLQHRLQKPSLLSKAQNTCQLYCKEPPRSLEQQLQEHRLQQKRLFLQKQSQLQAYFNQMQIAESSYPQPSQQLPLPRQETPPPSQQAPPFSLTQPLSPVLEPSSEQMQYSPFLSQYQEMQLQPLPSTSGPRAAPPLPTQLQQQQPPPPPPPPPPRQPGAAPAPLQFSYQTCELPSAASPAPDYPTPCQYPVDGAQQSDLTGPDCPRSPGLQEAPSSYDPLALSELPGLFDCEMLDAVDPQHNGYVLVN
row,SMILES,IC50 [µM]
1,"CCN1CC[C@H]1COc1cnc(C)cc1-c1ccn2nc(NC(=O)C3CC3)cc2c1 [Example 605, N-[5-[5-[[(2S)-1-ethylazetidin-2-yl]methoxy]-2-methyl-4-pyridyl]pyrazolo[1,5-a]pyridin-2-yl]cyclopropanecarboxamide]",0.316
2,"Cc1cc(-c2ccn3nc(NC(=O)C4(F)CC4)cc3c2)c(OC[C@H]2CCN2C)cn1 [Example 623, 1-fluoro-N-[5-[2-methyl-5-[[(2R)-1-methylazetidin-2-yl]methoxy]-4-pyridyl]pyrazolo[1,5-a]pyridin-2-yl]cyclopropanecarboxamide]",0.00644
3,"Cc1cc(-c2ccn3nc(NC(=O)C4CC4(F)F)cc3c2)c(OC[C@H]2CCN2C)cn1 (stereo partly drawn) [Example 624, 2,2-difluoro-N-[5-[2-methyl-5-[[(2R)-1-methylazetidin-2-yl]methoxy]-4-pyridyl]pyrazolo[1,5-a]pyridin-2-yl]cyclopropanecarboxamide]",0.00329
4,"Cc1cc(Nc2cc3cc(-c4cc(C(F)(F)F)ncc4OC[C@H]4CCN4C)ccn3n2)nc(C)n1 [Example 625, N-(2,6-dimethylpyrimidin-4-yl)-5-[5-[[(2R)-1-methylazetidin-2-yl]methoxy]-2-(trifluoromethyl)-4-pyridyl]pyrazolo[1,5-a]pyridin-2-amine]",0.73
5,"CC(=O)N1[C@@H]2COC[C@H]1C[C@@H](Oc1cnc(C)cc1-c1ccn3nc(Nc4cc(C)nc(C)n4)cc3c1)C2 [Example 627, 1-((1R,5S,7s)-7-((4-(2-((2,6-dimethylpyrimidin-4-yl)amino)pyrazolo[1,5-a]pyridin-5-yl)-6-methylpyridin-3-yl)oxy)-3-oxa-9-azabicyclo[3.3.1]nonan-9-yl)ethan-1-one]",0.0651
6,Cc1cc(-c2ccn3nc(Nc4ccnc(C)n4)cc3c2)c(O[C@H]2C[C@H]3COC[C@@H](C2)N3S(C)(=O)=O)cn1 [Example 630],1.18
7,"CNC(=O)c1ccnc(Nc2cc3cc(-c4cc(C)ncc4O[C@H]4C[C@H]5COC[C@@H](C4)N5C(C)=O)ccn3n2)c1 [Example 631, 2-((5-(5-(((1R,5S,7s)-9-acetyl-3-oxa-9-azabicyclo[3.3.1]nonan-7-yl)oxy)-2-methylpyridin-4-yl)pyrazolo[1,5-a]pyridin-2-yl)amino)-N-methylisonicotinamide]",0.0771
8,"CC(=O)N1[C@@H]2COC[C@H]1C[C@@H](Oc1cnc(C)cc1-c1ccn3nc(Nc4cc(C(F)(F)F)ccn4)cc3c1)C2 [Example 632, 1-((1R,5S,7s)-7-((6-methyl-4-(2-((4-(trifluoromethyl)pyridin-2-yl)amino)pyrazolo[1,5-a]pyridin-5-yl)pyridin-3-yl)oxy)-3-oxa-9-azabicyclo[3.3.1]nonan-9-yl)ethan-1-one]",0.00121

# Same assay, conditions: enzyme 6 nM, 6 mM ATP and 400 μM HDAC5tide (each 2× final concentration); 30 minutes pre-incubation, 2 hours; ADP-Glo Max luminescence; read-out: SIK2 high ATP IC50 (μM) (Test Example 2)
row,SMILES,IC50 [µM]
1,"Cc1cc(-c2ccn3nc(Nc4cc(C)nc(C)n4)cc3c2)c(O[C@H]2CC[C@H](C#N)CC2)cn1 [Example 581, (1r,4r)-4-((4-(2-((2,6-dimethylpyrimidin-4-yl)amino)pyrazolo[1,5-a]pyridin-5-yl)-6-methylpyridin-3-yl)oxy)cyclohexane-1-carbonitrile]",0.0838
2,"N#Cc1cc(-c2ccn3nc(NC(=O)C4CC4)cc3c2)c(OC[C@H]2C[C@@H](NCc3ccccc3)C2)cn1 [Example 599, N-[5-[5-[[3-(benzylamino)cyclobutyl]methoxy]-2-cyano-4-pyridyl]pyrazolo[1,5-a]pyridin-2-yl]cyclopropanecarboxamide]",0.141
3,"O=C(Nc1cc2cc(-c3cc(C(F)(F)F)ncc3OC[C@@H]3CNCCO3)ccn2n1)C1CC1 [Example 601, N-[5-[5-[[(2S)-morpholin-2-yl]methoxy]-2-(trifluoromethyl)-4-pyridyl]pyrazolo[1,5-a]pyridin-2-yl]cyclopropanecarboxamide]",0.116
4,"Cc1cc(-c2ccn3nc(Nc4cc(C)nc(C)n4)cc3c2)c(OC[C@@H]2C[C@H](O)CO2)cn1 [Example 606, (3S,5S)-5-[[4-[2-[(2,6-dimethylpyrimidin-4-yl)amino]pyrazolo[1,5-a]pyridin-5-yl]-6-methyl-3-pyridyl]oxymethyl]tetrahydrofuran-3-ol]",0.1
5,"Cc1cc(-c2ccn3nc(Nc4cc(C)nc(C)n4)cc3c2)c(OC[C@H]2C[C@H](O)CO2)cn1 [Example 609, (3S,5R)-5-[[4-[2-[(2,6-dimethylpyrimidin-4-yl)amino]pyrazolo[1,5-a]pyridin-5-yl]-6-methyl-3-pyridyl]oxymethyl]tetrahydrofuran-3-ol]",0.0797
6,"Cc1cc(-c2ccn3nc(Nc4cnccn4)cc3c2)c(OC[C@H]2CN(C)CCO2)cn1 [Example 611, 5-[2-methyl-5-[[(2R)-4-methylmorpholin-2-yl]methoxy]-4-pyridyl]-N-pyrazin-2-yl-pyrazolo[1,5-a]pyridin-2-amine]",0.116
7,"Cc1cc(-c2ccn3nc(Nc4ccc(C)nn4)cc3c2)c(OCC(C)(C)O)cn1 [Example 612, 2-methyl-1-[[6-methyl-4-[2-[(6-methylpyridazin-3-yl)amino]pyrazolo[1,5-a]pyridin-5-yl]-3-pyridyl]oxy]propan-2-ol]",0.115
8,"Cc1cc(-c2ccn3nc(Nc4cnc(C(C)(C)C)cn4)cc3c2)c(OCC(C)(C)O)cn1 [Example 613, 1-[[4-[2-[(5-tert-butylpyrazin-2-yl)amino]pyrazolo[1,5-a]pyridin-5-yl]-6-methyl-3-pyridyl]oxy]-2-methyl-propan-2-ol]",0.1
9,"Cc1cc(-c2ccn3nc(Nc4cc(F)c(C(=O)NC5CC5)c(F)c4)cc3c2)c(O[C@H]2CC[C@H](O)CC2)cn1 [Example 614, N-cyclopropyl-2,6-difluoro-4-[[5-[5-(4-hydroxycyclohexoxy)-2-methyl-4-pyridyl]pyrazolo[1,5-a]pyridin-2-yl]amino]benzamide]",0.0879
10,"CCN1CC[C@@H](COc2cnc(C#N)cc2-c2ccn3nc(NC(=O)C4CC4)cc3c2)C1 [Example 616, N-[5-[2-cyano-5-[[(3R)-1-ethylpyrrolidin-3-yl]methoxy]-4-pyridyl]pyrazolo[1,5-a]pyridin-2-yl]cyclopropanecarboxamide]",0.00103
11,"COc1cc(Nc2cc3cc(-c4cc(C)ncc4OCC(C)(C)O)ccn3n2)cc(OC)c1C(=O)NC1CC1 [Example 626, N-cyclopropyl-4-[[5-[5-(2-hydroxy-2-methyl-propoxy)-2-methyl-4-pyridyl]pyrazolo[1,5-a]pyridin-2-yl]amino]-2,6-dimethoxy-benzamide]",0.0862
12,"CC(=O)N1CCO[C@H](COc2cnc(C)cc2-c2ccn3nc(Nc4cc(C)nc(C)n4)cc3c2)C1 [Example 628, 1-[(2S)-2-[[4-[2-[(2,6-dimethylpyrimidin-4-yl)amino]pyrazolo[1,5-a]pyridin-5-yl]-6-methyl-3-pyridyl]oxymethyl]morpholin-4-yl]ethanone]",0.755
13,"Cc1cc(-c2ccn3nc(Nc4cc(C)nc(C)n4)cc3c2)c(OC[C@@H]2CN(S(C)(=O)=O)CCO2)cn1 [Example 629, N-(2,6-dimethylpyrimidin-4-yl)-5-[2-methyl-5-[[(2S)-4-methylsulfonylmorpholin-2-yl]methoxy]-4-pyridyl]pyrazolo[1,5-a]pyridin-2-amine]",0.175
14,"Cc1cc(-c2ccn3nc(Nc4cc(C(=O)N(C)C)cc(C)n4)cc3c2)c(OCC(C)(C)O)cn1 [Example 633, 2-[[5-[5-(2-hydroxy-2-methyl-propoxy)-2-methyl-4-pyridyl]pyrazolo[1,5-a]pyridin-2-yl]amino]-N,N,6-trimethyl-pyridine-4-carboxamide]",0.105
